Assay results from ChEMBL document CHEMBL1201862, “PubChem BioAssay data set” (2004).
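Growth conditions: 96-well plates. Treatment: test compound, 48 hours, 5 concentrations. Analysis: linear interpolation between bracketing concentrations; unreached endpoints set to highest concentration. GI50: concentration for 50% inhibition of growth.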 Activity calls are given as the source filed them. No stated cut-off is given here; in the data, active = GI50 up to about 1.1 µM and inactive = higher.

Assays:
Experiment in all cases: NCI-60 cell line screen, 48 h
SK-MEL-5 = tested on: SK-MEL-5
SK-MEL-2 = tested on: SK-MEL-2
OVCAR-4 = tested on: OVCAR-4
OVCAR-3 = tested on: OVCAR-3
786-0 = tested on: 786-0
NCI/ADR-RES = tested on: NCI/ADR-RES
ACHN = tested on: ACHN
SN12C = tested on: SN12C
M14 = tested on: M14
MDA-N = tested on: MDA-N
SNB-19 = tested on: SNB-19
NCI-H460 = tested on: NCI-H460
SK-OV-3 = tested on: SK-OV-3
HOP-62 = tested on: HOP-62
HL-60 = tested on: HL-60
DU-145 = tested on: DU-145
PC-3 = tested on: PC-3

Structure (SMILES)	GI50 (SK-MEL-5)	GI50 (SK-MEL-2)	GI50 (OVCAR-4)	GI50 (OVCAR-3)	GI50 (786-0)	GI50 (NCI/ADR-RES)	GI50 (ACHN)	GI50 (SN12C)	GI50 (M14)	GI50 (MDA-N)	GI50 (SNB-19)	GI50 (NCI-H460)	GI50 (SK-OV-3)	GI50 (HOP-62)	GI50 (HL-60)	GI50 (DU-145)	GI50 (PC-3)
CCN1C2=NCCN2S(=O)(=O)c2ccccc21	> 100 µM (inactive)	> 100 µM (inactive)	> 100 µM (inactive)	> 100 µM (inactive)	> 100 µM (inactive)	> 100 µM (inactive)	> 100 µM (inactive)	> 100 µM (inactive)	> 100 µM (inactive)	> 100 µM (inactive)	> 100 µM (inactive)	> 100 µM (inactive)	> 100 µM (inactive)	> 100 µM (inactive)	> 100 µM (inactive)	> 100 µM (inactive)	> 100 µM (inactive)
O=c1c2ccccc2n2nnc3ccc(NCCCNCCNCCCNc4ccc5nnn6c7ccccc7c(=O)c4c56)c1c32	> 50 µM (inactive)	> 50 µM (inactive)	2.3 µM (inactive)	6.35 µM (inactive)	0.48 µM (active)	12.6 µM (inactive)	0.986 µM (active)	0.457 µM (active)	> 12.6 µM (inactive)	1.38 µM (inactive)	6.84 µM (inactive)	0.505 µM (active)	> 20.3 µM (inactive)	2.99 µM (inactive)	1.1 µM (active)	5.77 µM (inactive)	3.21 µM (inactive)
CN(C)CCNC(=O)Cn1ccc(=O)c2ccc([N+](=O)[O-])cc21	> 100 µM (inactive)	> 100 µM (inactive)	17.5 µM (inactive)	38.2 µM (inactive)	> 100 µM (inactive)	> 100 µM (inactive)	> 100 µM (inactive)	> 100 µM (inactive)	> 100 µM (inactive)	> 100 µM (inactive)	> 100 µM (inactive)	> 100 µM (inactive)	> 100 µM (inactive)	> 100 µM (inactive)	> 100 µM (inactive)	> 100 µM (inactive)	> 100 µM (inactive)
S=C(S)NCC1CCC(CNC(=S)S)CC1 (configuration not stated)	87.9 µM (inactive)	23.3 µM (inactive)	42.8 µM (inactive)	16.5 µM (inactive)	4.63 µM (inactive)	67.8 µM (inactive)	20.7 µM (inactive)	20.6 µM (inactive)	82.8 µM (inactive)	26.7 µM (inactive)	> 100 µM (inactive)	70.5 µM (inactive)	> 100 µM (inactive)	20.7 µM (inactive)	48.9 µM (inactive)	26 µM (inactive)	17.8 µM (inactive)
CN(CC1(CO)CCC1)c1cc(Cl)nc(N)n1	> 100 µM (inactive)	> 100 µM (inactive)	58.9 µM (inactive)	> 100 µM (inactive)	> 100 µM (inactive)	> 100 µM (inactive)	> 100 µM (inactive)	> 100 µM (inactive)	> 100 µM (inactive)	> 100 µM (inactive)	> 100 µM (inactive)	> 100 µM (inactive)	> 100 µM (inactive)	> 100 µM (inactive)	> 100 µM (inactive)	> 100 µM (inactive)	> 100 µM (inactive)
O/N=C1/CCCc2nonc21	> 100 µM (inactive)	> 100 µM (inactive)	> 100 µM (inactive)	> 100 µM (inactive)	> 100 µM (inactive)	> 100 µM (inactive)	> 100 µM (inactive)	> 100 µM (inactive)	> 100 µM (inactive)	> 100 µM (inactive)	> 100 µM (inactive)	> 100 µM (inactive)	> 100 µM (inactive)	> 100 µM (inactive)	> 100 µM (inactive)	> 100 µM (inactive)	> 100 µM (inactive)
